From US20240158446A1, “CYCLIC COMPOUND HAVING SELECTIVE INHIBITORY ACTION ON KRAS OVER HRAS AND NRAS” (CHUGAI SEIYAKU KABUSHIKI KAISHA, priority 2021, published 2024)

Key:
[1] = target: GDP-bound HRAS wild-type protein (Homo sapiens, UniProt P01112); assay: Binding to HRAS by surface plasmon resonance (SPR), Single Cycle Kinetics; details: SPR KD ratio HRAS/KRAS, class symbols
[2] = test system: human lung cancer strain NCI-H441;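 also: cell proliferation inhibition after four days measured by CellTiter-Glo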
[3] = target: GDP-bound KRAS wild-type protein (Homo sapiens, UniProt P01116); assay: Binding to KRAS by surface plasmon resonance (SPR), Single Cycle Kinetics; details: SPR Single Cycle Kinetics, GDP-bound KRAS wild-type protein, 1:1 binding model; read-out: KRAS KD
[4] = target: GDP-bound NRAS wild-type protein (Homo sapiens, UniProt P01111); assay: Binding to NRAS by surface plasmon resonance (SPR), Single Cycle Kinetics; details: SPR KD ratio NRAS/KRAS, class symbols
Sequence of GDP-bound NRAS wild-type protein (P01111 whole entry): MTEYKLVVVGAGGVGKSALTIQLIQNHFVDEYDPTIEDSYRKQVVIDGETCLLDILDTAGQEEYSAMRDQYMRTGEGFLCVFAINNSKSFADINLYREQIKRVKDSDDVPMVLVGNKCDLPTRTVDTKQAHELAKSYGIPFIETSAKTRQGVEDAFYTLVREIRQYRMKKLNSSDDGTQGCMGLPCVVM

Sequence of GDP-bound KRAS wild-type protein (P01116 whole entry): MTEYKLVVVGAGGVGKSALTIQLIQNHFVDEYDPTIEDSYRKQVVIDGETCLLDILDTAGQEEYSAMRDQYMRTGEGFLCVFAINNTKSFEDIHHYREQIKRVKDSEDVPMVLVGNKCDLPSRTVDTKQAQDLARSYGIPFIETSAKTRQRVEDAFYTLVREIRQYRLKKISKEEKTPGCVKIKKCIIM
Sequence of GDP-bound HRAS wild-type protein (P01112 whole entry): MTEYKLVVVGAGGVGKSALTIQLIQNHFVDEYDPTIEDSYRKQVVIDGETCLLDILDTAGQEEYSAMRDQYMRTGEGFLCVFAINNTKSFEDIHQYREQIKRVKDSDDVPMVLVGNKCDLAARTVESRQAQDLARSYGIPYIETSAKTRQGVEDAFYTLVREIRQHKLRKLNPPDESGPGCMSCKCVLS

Compound | HRAS/KRAS (ratio of KD value with respect to GDP-bound HRAS wild-type protein to KD value with respect to KRAS) [1] | IC50 [2] [nM] | Kd [3] [nM] | NRAS/KRAS (ratio of KD value with respect to GDP-bound NRAS wild-type protein to KD value with respect to KRAS) [4]
CCC[C@H]1C(=O)N[C@@H]([C@@H](C)CC)C(=O)N2C[C@@H](OC)C[C@H]2C(=O)N(C)[C@H]2C/C=C\CCN(C2=O)[C@@H](Cc2ccc(C)cc2)C(=O)N(C)CC(=O)N[C@@H](CCc2cc(F)c(C(F)(F)F)c(F)c2)C(=O)N2C[C@H](OCC)C[C@H]2C(=O)NC2(CCC2)C(=O)N(C)[C@@H](C2CCCC2)C(=O)N(C)[C@H](C(=O)N(C)C)CC(=O)N1C [PP2550] | B (a compound having 3 or more and less than 10 is denoted as B) | 38.5 | 0.29 | A (a compound having 10 or more and less than 20 is denoted as A)
CCC[C@H]1C(=O)N[C@@H](CC(C)C)C(=O)N2C[C@@H](OC)C[C@H]2C(=O)N(C)[C@H]2C/C=C\CCN(C2=O)[C@@H](Cc2ccc(C)cc2)C(=O)N(C)CC(=O)N[C@@H](CCc2cc(F)c(C(F)(F)F)c(F)c2)C(=O)N2C[C@H](OCC)C[C@H]2C(=O)NC2(CC(C)(C)C2)C(=O)N(C)[C@@H](C2CCCC2)C(=O)N(C)[C@H](C(=O)N(C)C)CC(=O)N1C [PP2553] | B (a compound having 3 or more and less than 10 is denoted as B) | 121 | 3.4 | A (a compound having 10 or more and less than 20 is denoted as A)
CCC[C@H]1C(=O)N[C@@H](CC(C)C)C(=O)N2C[C@@H](OC)C[C@H]2C(=O)N(C)[C@H]2C/C=C\CCN(C2=O)[C@@H](Cc2ccc(C)cc2)C(=O)N(C)CC(=O)N[C@@H](CCc2ccc(C(F)(F)F)c(OC)c2)C(=O)N2C[C@H](OCC)C[C@H]2C(=O)NC2(CC(C)(C)C2)C(=O)N(C)[C@@H](C2CCCC2)C(=O)N(C)[C@H](C(=O)N(C)C)CC(=O)N1C [PP2554] | B (a compound having 3 or more and less than 10 is denoted as B) | 271 | 5.6 | A (a compound having 10 or more and less than 20 is denoted as A)
CCC[C@H]1C(=O)N[C@@H](CC(C)C)C(=O)N2C[C@@H](OC)C[C@H]2C(=O)N(C)[C@H]2C/C=C\CCN(C2=O)[C@@H](Cc2ccc(C)cc2)C(=O)N(C)CC(=O)N[C@@H](CCc2ccc(C(F)(F)F)c(Cl)c2)C(=O)N2C[C@H](OCC)C[C@H]2C(=O)NC2(CC(C)(C)C2)C(=O)N(C)[C@@H](C2CCCC2)C(=O)N(C)[C@H](C(=O)N(C)C)CC(=O)N1C [PP2555] | B (a compound having 3 or more and less than 10 is denoted as B) | 212 | 4.1 | A (a compound having 10 or more and less than 20 is denoted as A)
CCC[C@H]1C(=O)N[C@@H]([C@@H](C)CC)C(=O)N2C[C@@H](OC)C[C@H]2C(=O)N(C)[C@H]2C/C=C\CCN(C2=O)[C@@H](Cc2ccc(C)cc2)C(=O)N(C)CC(=O)N[C@@H](CCc2cc(F)c(C(F)(F)F)c(F)c2)C(=O)N2C[C@H](OCC)C[C@H]2C(=O)NC2(CC(C)(C)C2)C(=O)N(C)[C@@H](C2CCCC2)C(=O)N(C)[C@H](C(=O)N(C)C)CC(=O)N1C [PP2556] | B (a compound having 3 or more and less than 10 is denoted as B) | 9.4 | 0.21 | A (a compound having 10 or more and less than 20 is denoted as A)
